Results on 5 compounds are retold here after ChEMBL document CHEMBL1138935, “Lead optimization providing a series of flavone derivatives as potent nonsteroidal inhibitors of the cytochrome P450 aromatase enzyme” (J Med Chem, 2006).

For orientation: inhibition means the drop in the measured response relative to a control, in per cent. High values mean strong suppression, low ones little suppression.

This data set addresses T1, CYP17 (steroid 17-alpha-hydroxylase/17,20 lyase) (Homo sapiens, UniProt P05093).
T1 sequence (P05093 whole entry): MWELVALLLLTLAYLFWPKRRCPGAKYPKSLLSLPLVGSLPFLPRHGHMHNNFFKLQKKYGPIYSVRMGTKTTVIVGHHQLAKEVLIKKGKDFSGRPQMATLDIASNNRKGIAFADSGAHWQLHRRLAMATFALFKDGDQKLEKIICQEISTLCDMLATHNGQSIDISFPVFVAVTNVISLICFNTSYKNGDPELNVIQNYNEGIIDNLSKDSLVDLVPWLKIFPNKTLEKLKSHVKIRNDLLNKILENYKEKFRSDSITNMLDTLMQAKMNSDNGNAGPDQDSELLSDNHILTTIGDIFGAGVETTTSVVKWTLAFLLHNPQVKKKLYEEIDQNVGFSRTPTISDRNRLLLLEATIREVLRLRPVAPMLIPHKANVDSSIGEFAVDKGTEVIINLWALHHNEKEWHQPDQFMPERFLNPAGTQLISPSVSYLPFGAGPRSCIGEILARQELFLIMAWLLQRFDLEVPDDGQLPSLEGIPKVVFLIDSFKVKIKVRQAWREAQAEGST
As to the kind of experiment: Inhibition of CYP17 at 2.5 uM.

With `COc1ccc2c(=O)c(Cn3ccnc3)c(-c3ccc([N+](=O)[O-])cc3)oc2c1`, the inhibition at 2.5 µM came out at 9%.

`O=c1c(Cn2ccnc2)c(-c2ccc(Br)cc2)oc2ccccc12` returned an inhibition at 2.5 µM of 27%.

Compound `COc1ccc2c(=O)c(Cn3ccnc3)c(-c3ccc(C#N)cc3)oc2c1` returned an inhibition at 2.5 µM of 12%.

With `COc1ccc2c(=O)c(Cn3ccnc3)c(-c3ccc(Br)cc3)oc2c1`, the inhibition at 2.5 µM is 29%.

As for `COc1ccc(-c2oc3ccccc3c(=O)c2Cn2ccnc2)cc1`, the inhibition at 2.5 µM was 26%.
